The values that follow come from BindingDB's records for doi:10.1016/j.bioorg.2014.11.005 (Charles University In Prague, 2015).

One test addresses Acetylcholinesterase (Electrophorus electricus, UniProt O42275). The test is described as follows: Ellman's Method. A general note: DTNB colorimetry detects thiols as they appear.
The target of test [1] is Carboxylic ester hydrolase (Equus caballus, UniProt Q9N1N9). The test is described as follows: Ellman's Method.
Chain of Carboxylic ester hydrolase (Q9N1N9 whole entry): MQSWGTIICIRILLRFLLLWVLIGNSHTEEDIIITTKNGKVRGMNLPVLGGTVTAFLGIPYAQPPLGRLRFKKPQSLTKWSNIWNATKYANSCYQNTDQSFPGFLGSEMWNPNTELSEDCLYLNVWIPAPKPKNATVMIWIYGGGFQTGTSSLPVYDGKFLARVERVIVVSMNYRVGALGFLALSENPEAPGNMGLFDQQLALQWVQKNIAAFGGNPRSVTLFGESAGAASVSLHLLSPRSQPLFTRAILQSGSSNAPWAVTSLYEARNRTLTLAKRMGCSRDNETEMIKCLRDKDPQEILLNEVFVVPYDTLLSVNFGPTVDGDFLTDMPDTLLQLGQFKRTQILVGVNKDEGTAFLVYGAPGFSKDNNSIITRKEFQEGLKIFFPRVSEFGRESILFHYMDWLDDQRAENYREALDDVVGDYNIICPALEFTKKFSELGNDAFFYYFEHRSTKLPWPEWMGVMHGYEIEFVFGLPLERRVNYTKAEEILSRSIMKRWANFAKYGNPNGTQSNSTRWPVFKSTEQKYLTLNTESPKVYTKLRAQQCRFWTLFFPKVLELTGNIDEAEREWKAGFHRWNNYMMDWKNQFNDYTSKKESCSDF

Chain of Acetylcholinesterase (O42275 whole entry): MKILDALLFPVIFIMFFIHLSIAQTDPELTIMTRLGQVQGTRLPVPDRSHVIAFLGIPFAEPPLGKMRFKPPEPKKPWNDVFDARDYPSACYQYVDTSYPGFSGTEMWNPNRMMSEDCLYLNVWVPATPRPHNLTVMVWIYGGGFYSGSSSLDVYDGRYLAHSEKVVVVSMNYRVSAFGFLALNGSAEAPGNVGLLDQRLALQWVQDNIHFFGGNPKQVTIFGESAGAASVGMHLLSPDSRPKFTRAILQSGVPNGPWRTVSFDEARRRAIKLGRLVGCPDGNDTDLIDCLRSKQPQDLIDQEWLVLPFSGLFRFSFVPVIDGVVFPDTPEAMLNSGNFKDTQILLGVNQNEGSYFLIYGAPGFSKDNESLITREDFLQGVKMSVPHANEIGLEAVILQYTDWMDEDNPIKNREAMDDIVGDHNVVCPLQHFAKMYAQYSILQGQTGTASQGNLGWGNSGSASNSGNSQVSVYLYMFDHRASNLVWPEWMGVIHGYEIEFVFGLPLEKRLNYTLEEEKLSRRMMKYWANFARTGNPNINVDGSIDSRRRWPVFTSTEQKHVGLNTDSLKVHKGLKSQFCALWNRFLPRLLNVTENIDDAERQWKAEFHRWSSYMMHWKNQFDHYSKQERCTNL

Broadly, the IC50 is the midpoint of a concentration-inhibition curve. Low values mean higher potency, high ones lower potency. Turning to `CCOP(=O)(OCC)Oc1cc(Cl)ccc1C(=O)Nc1cccc(Br)c1` [2-[(3-bromophenyl)carbamoyl]-5-chlorophenyl diethyl phosphate (20)], the figures for the IC50 (against Acetylcholinesterase; in test [1]) were 35.4 µM and 1.77 µM, respectively.
On the same counts, the results for `CCOP(=O)(OCC)Oc1cc(Cl)ccc1C(=O)Nc1ccc(Br)cc1` [2-[(4-bromophenyl)carbamoyl]-5-chlorophenyl diethyl phosphate (23)] are 55.1 µM and 8.76 µM.
On the same counts, the results for `CCOP(=O)(OCC)Oc1ccc(Cl)cc1C(=O)Nc1cccc(Br)c1` [2‐[(3‐bromophenyl)carbamoyl]‐4‐chlorophenyl  diethyl phosphate (16)] are 63.3 µM and 16.9 µM.
Regarding `CCOP(=O)(OCC)Oc1ccc(Cl)cc1C(=O)Nc1ccc(Br)cc1` [2‐[(4‐bromophenyl)carbamoyl]‐4‐chlorophenyl  diethyl phosphate (14)], the IC50 on Acetylcholinesterase was 59.2 µM; in test [1], 40.2 µM.
On the same counts, the results for `CCOP(=O)(OCC)Oc1ccc(Br)cc1C(=O)Nc1ccc(Cl)c(Cl)c1` [4‐bromo‐2‐[(3,4‐dichlorophenyl)carbamoyl]phenyl  diethyl phosphate (4)] are 55.2 µM and 49.6 µM.
Regarding `CCOP(=O)(OCC)Oc1ccc(Br)cc1C(=O)Nc1cccc(Br)c1` [4‐bromo‐2‐[(3‐bromophenyl)carbamoyl]phenyl diethyl  phosphate (7)], the 50% inhibitory concentration (IC50) against Acetylcholinesterase is 70.3 µM; in test [1] it was 18 µM.
On the same counts, the results for `CCOP(=O)(OCC)Oc1ccc(Br)cc1C(=O)Nc1cccc(Cl)c1` [4‐bromo‐2‐[(3‐chlorophenyl)carbamoyl]phenyl  diethyl phosphate (2)] are 79.9 µM and 24.4 µM.
On the same counts, the results for `CCOP(=O)(OCC)Oc1ccc(Br)cc1C(=O)Nc1cccc(F)c1` [4‐bromo‐2‐[(3‐fluorophenyl)carbamoyl]phenyl  diethyl phosphate (1)] are 69.8 µM and 68.3 µM.
On the same counts, the results for `CCOP(=O)(OCC)Oc1ccc(Br)cc1C(=O)Nc1ccc(Br)cc1` [4‐bromo‐2‐[(4‐bromophenyl)carbamoyl]phenyl diethyl  phosphate (8)] are 50.8 µM and 13 µM.
As to `CCOP(=O)(OCC)Oc1ccc(Br)cc1C(=O)Nc1ccc(Cl)cc1` [4‐bromo‐2‐[(4‐chlorophenyl)carbamoyl]phenyl  diethyl phosphate (3)], the IC50 was found to be 45.5 µM against Acetylcholinesterase and 19.9 µM in test [1].
On the same counts, the results for `CCOP(=O)(OCC)Oc1ccc(Br)cc1C(=O)Nc1ccc(F)cc1` [4‐bromo‐2‐[(4‐fluorophenyl)carbamoyl]phenyl  diethyl phosphate (9)] are 53.7 µM and 22.7 µM.
On the same counts, the results for `CCOP(=O)(OCC)Oc1ccc(Br)cc1C(=O)Nc1cccc(C(F)(F)F)c1` [4‐bromo‐2‐{[3‐ (trifluoromethyl)phenyl]carbamoyl}phenyl diethyl  phosphate (5)] are 46.1 µM and 14.3 µM.
On the same counts, the results for `CCOP(=O)(OCC)Oc1ccc(Br)cc1C(=O)Nc1ccc(C(F)(F)F)cc1` [4‐bromo‐2‐{[4‐ (trifluoromethyl)phenyl]carbamoyl}phenyl diethyl  phosphate (6)] are 56.7 µM and 10.3 µM.
Take `CCOP(=O)(OCC)Oc1ccc(Cl)cc1C(=O)Nc1ccc(Cl)c(Cl)c1` [4‐chloro‐2‐[(3,4‐dichlorophenyl)carbamoyl]phenyl  diethyl phosphate (15)]: the IC50 on Acetylcholinesterase stood at 80.9 µM; in test [1] it was 40.3 µM.
On the same counts, the results for `CCOP(=O)(OCC)Oc1ccc(Cl)cc1C(=O)Nc1cccc(Cl)c1` [4‐chloro‐2‐[(3‐chlorophenyl)carbamoyl]phenyl  diethyl phosphate (10)] are 64.3 µM and 28.1 µM.
Consider `CCOP(=O)(OCC)Oc1ccc(Cl)cc1C(=O)Nc1cccc(F)c1` [4‐chloro‐2‐[(3‐fluorophenyl)carbamoyl]phenyl  diethyl phosphate (12)], for which the results for the IC50 (at Acetylcholinesterase; in test [1]) were 61.1 µM and 31.6 µM, respectively.
On the same counts, the results for `CCOP(=O)(OCC)Oc1ccc(Cl)cc1C(=O)Nc1ccc(Cl)cc1` [4‐chloro‐2‐[(4‐chlorophenyl)carbamoyl]phenyl  diethyl phosphate (11)] are 60.9 µM and 42.1 µM.
On the same counts, the results for `CCOP(=O)(OCC)Oc1ccc(Cl)cc1C(=O)Nc1ccc(F)cc1` [4‐chloro‐2‐[(4‐fluorophenyl)carbamoyl]phenyl  diethyl phosphate (13)] are 48.5 µM and 20.5 µM.
On the same counts, the results for `CCOP(=O)(OCC)Oc1ccc(Cl)cc1C(=O)Nc1cccc(C(F)(F)F)c1` [4‐chloro‐2‐{[3‐ (trifluoromethyl)phenyl]carbamoyl}phenyl diethyl  phosphate (17)] are 51.5 µM and 24.8 µM.
For `CCOP(=O)(OCC)Oc1ccc(Cl)cc1C(=O)Nc1ccc(C(F)(F)F)cc1` [4‐chloro‐2‐{[4‐ (trifluoromethyl)phenyl]carbamoyl}phenyl diethyl  phosphate (18)], the IC50 on Acetylcholinesterase came to 41.6 µM; in test [1], 20.9 µM.
For the compound `CCOP(=O)(OCC)Oc1cc(Cl)ccc1C(=O)Nc1ccc(Cl)c(Cl)c1` [5-chloro-2-[(3,4-dichlorophenyl)carbamoyl]phenyl diethyl phosphate (25)], the IC50 against Acetylcholinesterase turned out to be 45.5 µM; in test [1] it was 0.903 µM.
On the same counts, the results for `CCOP(=O)(OCC)Oc1cc(Cl)ccc1C(=O)Nc1cccc(Cl)c1` [5-chloro-2-[(3-chlorophenyl)carbamoyl]phenyl diethyl phosphate (19)] are 41.1 µM and 3.68 µM.
In the case of `CCOP(=O)(OCC)Oc1cc(Cl)ccc1C(=O)Nc1cccc(F)c1` [5-chloro-2-[(3-fluorophenyl)carbamoyl]phenyl diethyl phosphate (21)], the half-maximal inhibitory concentration (IC50) against Acetylcholinesterase is 60.2 µM; in test [1], 11.5 µM.
On the same counts, the results for `CCOP(=O)(OCC)Oc1cc(Cl)ccc1C(=O)Nc1ccc(Cl)cc1` [5-chloro-2-[(4-chlorophenyl)carbamoyl]phenyl diethyl phosphate (24)] are 60.9 µM and 5.01 µM.
Turning to `CCOP(=O)(OCC)Oc1cc(Cl)ccc1C(=O)Nc1ccc(F)cc1` [5-chloro-2-[(4-fluorophenyl)carbamoyl]phenyl diethyl phosphate (22)], the IC50 against Acetylcholinesterase was found to be 80.8 µM; in test [1] it was 4.43 µM.
On the same counts, the results for `CCOP(=O)(OCC)Oc1cc(Cl)ccc1C(=O)Nc1cccc(C(F)(F)F)c1` [5-chloro-2-{[3-(trifluoromethyl)phenyl]carbamoyl}phenyl diethyl phosphate (26)] are 71.9 µM and 3.53 µM.
On the same counts, the results for `CCOP(=O)(OCC)Oc1cc(Cl)ccc1C(=O)Nc1ccc(C(F)(F)F)cc1` [5-chloro-2-{[4-(trifluoromethyl)phenyl]carbamoyl}phenyl diethyl phosphate (27)] are 86.3 µM and 9.84 µM.
